Experimental data from patent publication US9924716B2, “Molecules having pesticidal utility, and intermediates, compositions, and processes, related thereto” (Dow AgroSciences LLC, priority 2016, dated 2018).

Columns and labels:
[1] = tested on: Cabbage Looper (Trichoplusia ni, TRIPNI) second instar larvae; assay: Bioassay on Cabbage Looper (CL), 128-well diet tray assay; assay type: in vivo; settings: for pest or weed control at 50 µg/cm2: Cabbage Looper, Table ABC Biological Results, read-out: CL rating; for mortality at 0.05 µg/cm2: 0.05 μg/cm^2 on artificial diet; for mortality at 0.05 µg/cm2 / mortality at 0.5 µg/cm2 / mortality at 5 µg/cm2: read-out: Percent control (or mortality) CL; for mortality at 0.5 µg/cm2: 0.5 μg/cm^2 on artificial diet; for mortality at 5 µg/cm2: 5 μg/cm^2 on artificial diet
Protocol: (§1) Certain molecules disclosed in this document were tested against BAW, CEW, and CL using procedures described in the following examples. In the reporting of the results, the “BAW, CEW, & CL Rating Table” was used (See Table Section).
Bioassays on CL were conducted using a 128-well diet tray assay. one to five second instar CL larvae were placed in each well (3 mL) of the diet tray that had been previously filled with 1 mL of artificial diet to which 50 μg/cm^2 of the test molecule (dissolved in 50 μL of 90:10 acetone-water mixture) had been applied (to each of eight wells) and then allowed to dry. Trays were covered with a clear self-adhesive cover and held at 25° C., 14:10 light-dark for five to seven days. Percent mortality was recorded for the larvae in each well; activity in the eight wells was then averaged. The results are indicated in the table entitled “Table ABC: Biological Results” (See Table Section).
(§2) Bioassays on BAW and CL were conducted according to the procedures outlined in Example A: Bioassays on Beet Armyworm (“BAW”) and Cabbage Looper (“CL”) using the indicated concentrations.

[2] = tested on: Beet Armyworm (Spodoptera exigua, LAPHEG) second instar larvae; assay: Bioassay on Beet Armyworm (BAW), 128-well diet tray assay; assay type: in vivo; settings: for pest or weed control at 50 µg/cm2: Beet Armyworm, Table ABC Biological Results, read-out: BAW rating; for mortality at 0.05 µg/cm2: 0.05 μg/cm^2 on artificial diet; for mortality at 0.05 µg/cm2 / mortality at 0.5 µg/cm2 / mortality at 5 µg/cm2: read-out: Percent control (or mortality) BAW; for mortality at 0.5 µg/cm2: 0.5 μg/cm^2 on artificial diet; for mortality at 5 µg/cm2: 5 μg/cm^2 on artificial diet
Protocol: as §1
Bioassays on BAW were conducted using a 128-well diet tray assay. one to five second instar BAW larvae were placed in each well (3 mL) of the diet tray that had been previously filled with 1 mL of artificial diet to which 50 μg/cm^2 of the test molecule (dissolved in 50 μL of 90:10 acetone-water mixture) had been applied (to each of eight wells) and then allowed to dry. Trays were covered with a clear self-adhesive cover and held at 25° C., 14:10 light-dark for five to seven days. Percent mortality was recorded for the larvae in each well; activity in the eight wells was then averaged. The results are indicated in the table entitled “Table ABC: Biological Results” (See Table Section).
as §2

SMILES	pest or weed control at 50 µg/cm2 [1] [%]	pest or weed control at 50 µg/cm2 [2] [%]	mortality at 0.05 µg/cm2 [1] [%]	mortality at 0.5 µg/cm2 [1] [%]	mortality at 5 µg/cm2 [1] [%]	mortality at 0.05 µg/cm2 [2] [%]	mortality at 0.5 µg/cm2 [2] [%]	mortality at 5 µg/cm2 [2] [%]
CC[C@H](NC(=O)CC(F)(F)F)NC(=O)c1ccc(/C(F)=C/C(c2cc(Cl)c(Cl)c(Cl)c2)C(F)(F)F)cc1C(F)(F)F (stereo partly drawn) [F35, 4-((Z)-1,4,4,4-Tetrafluoro-3-(3,4,5-trichlorophenyl)but-1-en-1-yl)-2-(trifluoromethyl)-N—((R)-1-(3,3,3-trifluoropropanamido)propyl)benzamide]	50 to 100	50 to 100	–	–	–	–	–	–
C[C@H](NC(=O)CC(F)(F)F)NC(=O)c1ccc(/C(F)=C/C(c2ccc(Cl)c(Br)c2)C(F)(F)F)cc1C(F)(F)F (stereo partly drawn) [F37, 4-((Z)-3-(3-Bromo-4-chlorophenyl)-1,4,4,4-tetrafluorobut-1-en-1-yl)-2-(trifluoromethyl)-N—((R)-1-(3,3,3-trifluoropropanamido)ethyl)benzamide]	50 to 100	50 to 100	–	–	–	–	–	–
C[C@H](NC(=O)CC(F)(F)F)NC(=O)c1ccc(/C(F)=C/C(c2ccc(Cl)c(Cl)c2)C(C)(F)F)cc1C(F)(F)F (stereo partly drawn) [F39, 4-((Z)-3-(3,4-Dichlorophenyl)-1,4,4-trifluoropent-1-en-1-yl)-2-(trifluoromethyl)-N—((R)-1-(3,3,3-trifluoropropanamido)ethyl)benzamide]	50 to 100	50 to 100	–	–	–	–	–	–
C[C@H](NC(=O)CCC(F)(F)F)NC(=O)c1ccc(/C(F)=C/C(c2ccc(Cl)c(Cl)c2)C(C)(F)F)cc1C(F)(F)F (stereo partly drawn) [F40, 4-((Z)-3-(3,4-Dichlorophenyl)-1,4,4-trifluoropent-1-en-1-yl)-N—((R)-1-(4,4,4-trifluorobutanamido)ethyl)-2-(trifluoromethyl)benzamide]	50 to 100	50 to 100	–	–	–	–	–	–
C[C@H](NC(=O)CC(F)(F)F)NC(=O)c1ccc(/C(F)=C/C(c2cc(Cl)c(Cl)c(Cl)c2)C(F)(F)F)cc1 (stereo partly drawn) [FC1, 4-((Z)-1,4,4,4-Tetrafluoro-3-(3,4,5-trichlorophenyl)but-1-en-1-yl)-N—((R)-1-(3,3,3-trifluoropropanamido)ethyl)benzamide, reference compound]	–	–	0	0	100	0	0	7
C[C@H](NC(=O)CCC(F)(F)F)NC(=O)c1ccc(/C(F)=C/C(c2cc(Cl)c(Cl)c(Cl)c2)C(F)(F)F)cc1 (stereo partly drawn) [FC2, 4-((Z)-1,4,4,4-Tetrafluoro-3-(3,4,5-trichlorophenyl)but-1-en-1-yl)-N—((R)-1-(4,4,4-trifluorobutanamido)ethyl)benzamide, reference compound]	–	–	0	6	100	0	0	100
C[C@H](NC(=O)CC(F)(F)F)NC(=O)c1ccc(/C(F)=C/C(c2ccc(Br)c(Cl)c2)C(F)(F)F)cc1C(F)(F)F (stereo partly drawn) [PF8, 4-((Z)-3-(4-Bromo-3-chlorophenyl)-1,4,4,4-tetrafluorobut-1-en-1-yl)-2-(trifluoromethyl)-N—((R)-1-(3,3,3-trifluoropropanamido)ethyl)benzamide]	50 to 100	50 to 100	–	–	–	–	–	–
C[C@H](NC(=O)CCC(F)(F)F)NC(=O)c1ccc(/C(F)=C/C(c2ccc(Cl)c(Br)c2)C(F)(F)F)cc1C(F)(F)F (stereo partly drawn) [PF13, 4-((Z)-3-(3-Bromo-4-chlorophenyl)-1,4,4,4-tetrafluorobut-1-en-1-yl)-N—((R)-1-(4,4,4-trifluorobutanamido)ethyl)-2-(trifluoromethyl)benzamide]	50 to 100	50 to 100	–	–	–	–	–	–
C[C@@H](NC(=O)c1ccc(/C(F)=C/C(c2cc(Cl)c(Cl)c(Cl)c2)C(F)(F)F)cc1C(F)(F)F)NC(=O)C1(C#N)CC1 (stereo partly drawn) [PF31, N—((S)-1-(1-Cyanocyclopropane-1-carboxamido)ethyl)-4-((Z)-1,4,4,4-tetrafluoro-3-(3,4,5-trichlorophenyl)but-1-en-1-yl)-2-(trifluoromethyl)benzamide]	50 to 100	50 to 100	–	–	–	–	–	–
